Here are results for 5 compounds from patent US20230172232A1, “COMPOSITIONS AND METHODS USING AN AMINO ACID BLEND FOR PROVIDING A HEALTH BENEFIT IN AN ANIMAL” (Société des Produits Nestlé S.A., priority 2021, published 2023).

For one assay, the system named is HK2 cells. The assay is described as follows: Luminescent Cell Viability assay by measuring ATP (CellTiter-Glo 2.0). In kind it is cell-based. Conditions: for Cell Survival (Average Lum): Table 5, additional study, 48 h in medium, Control 763 951, W/O AA 565 539. The method, then: An amino acid blend study was performed using HK2 cell response to evaluate kidney health benefit. The amino acid blend composed glycine, methionine, cysteine, and glutamine. Protocol for Luminescent Cell Viability assay by measuring ATP, a key indicator of cell health is detailed hereafter.
For each experiment, a frozen stock of HK2 cells banked with less than passage 4 was thawed and expanded in normal growing medium in a humidified incubator at 37° C. in 5% CO2. HK2 cells were cultured for a maximum of 3 passages prior to cellular assays and were passaged upon reaching 70-80% confluence, approximately every 3 days.
2500 HK2 cells were seeded in 384 well plate in normal growing medium. 24 h after, cells were starved during 2 hours in HBSS buffer to remove all amino acids traces and then a new medium with specific formulation is added for 48 h incubation: Control medium with all amino acids, Medium without amino acids, Medium with 4 amino acids blend, Medium with all amino acids except 4 amino acids of interest, Medium with glycine only, Medium with methionine only, Medium with cysteine only, Medium with glutamine only, and Medium with cysteine+glutamine only.
Treatment is stopped by adding a CellTiter-Glo® 2.0 assay reagent from Promega to lyse the cells, after 20 min of incubation at room temperature with under slight shaking luminescence level was measured using a luminescent plate reader as an indicator of cell viability. Presence of ATP indicates the presence of metabolically active cells.

Assay [1] deals with Complex I (CI) respiration of isolated mitochondria from skeletal muscle. The assay can be described thus: Acute oxidative stress (menadione) and mitochondrial high-resolution respirometry. In kind it is in vivo. To be noted: adult zebrafish, 3 μM menadione 2 h, then glycine 50, 200, 450 μM or glucose 500 μM and 5 mM in water 2 h at 28° C.; FIG. 3. The method, then:
Adult AB zebrafish of 4-6 months old were exposed in water to acute oxidative stress with 3 μM Menadione (Sigma-Aldrich) incubation for 2 h at 28° C. Following the stress, fish were divided into controls and treatment groups. Controls of the oxidative stress were then incubated in clean water for 2 h at 28° C. […] After BCA quantification of protein concentration, 150 μg of crude extract were used for high-resolution respirometry quantification. The Oxygraph-2k (O2k, OROBOROS Instruments) was used for measurements of respiration. Up to three O2k instruments ([…]) were used in parallel. […] Respiration of isolated mitochondria was determined using substrate-uncoupler-inhibitor titration (SUIT) protocols (Pesta and […], Methods Mol Biol. 2012; 810:25-58) with modifications. Pyruvate, glutammate and malate (5 mM, 10 mM, 2 mM, respectively) were used as substrate to induce Complex I (CI) respiration in presence of ADP (1 mM). […] CI respiration was calculated as the difference between total respiration (CI+CII) and the addition of CI inhibitor rotenone (0.5 μM); CII respiration was calculated as the difference between inhibited CI respiration and the addition of CII inhibitor malonic acid (5 mM). Total respiration (CI+CII, Tot resp) was assessed as the difference of the respiration in presence of all substrates and the total inhibition of CI and CII.

As to `N[C@@H](CS)C(=O)O` [cysteine], the “Cell Survival (Average Lum)” value in the assay with HK2 cells is recorded as 388 041 Lum.
For `CC1=CC(=O)c2ccccc2C1=O` [menadione, Menadione, reference compound], the “Complex I dependent respiration (O2 consumption of isolated mitochondria)” value in assay [1] was “decreasing Complex I dependent respiration”.
For `CSCC[C@H](N)C(=O)O` [methionine], the “Cell Survival (Average Lum)” value with HK2 cells is reported as 611 869 Lum.
Turning to `NCC(=O)O` [glycine], the “Complex I dependent respiration (O2 consumption of isolated mitochondria)” value in assay [1] is given as “restores Complex I respiratory levels”. In addition, in the assay with HK2 cells, the “Cell Survival (Average Lum)” value is on record as 620 224 Lum.
As to `NC(=O)CC[C@H](N)C(=O)O` [glutamine], the “Cell Survival (Average Lum)” value in the assay on HK2 cells was 740 156 Lum. Also, the “protective effect on cell survival (in words)” value in the assay on HK2 cells (Table 5 study) is on record as “performed similarly to the blend”.
